Experimental data reported in patent US20260232750A1, “COMPOSITION AND METHOD FOR INHIBITING ADVANCED GLYCATION END PRODUCTS” (ACCESS BUSINESS GROUP INTERNATIONAL LLC, priority 2022, published 2026).
“And” between values parts separate entries of the source, which are not always exact repeats. Equal entries are not always repeated. “Also recorded” adds a separate entry of the source. Where two headings read alike, the source gives them in different places.

Assays:
[1] = ABTS·+ decolourisation assay; assay type: biochemical; settings: for IC50: read-out: IC50 against the ABTS radical
Method: (§1) Fast colourimetric methods were slightly modified for the in vitro assessment of DPPH· scavenging, ABTS·+ decolourisation capacity, and total antioxidant capacity of FRAP. The stock solutions of derivatisation reagents were diluted as follows before measurement: DPPH was diluted with absolute ethanol until the absorbance was 0.8±0.05 at λ=517 nm. ABTS working solution was prepared with phosphate buffer (0.2 M, pH 7.4) to display absorbance of 0.8±0.05 at λ=729 nm, based on a previous study. The FRAP solution was prepared according to the instructions of the FRAP kit. Absorbances were measured using an automatic microplate reader (Molecular Group Ltd., USA), and all analyses were performed using 96-well plates. All measurements were performed in triplicate, and Trolox was used as a positive control.
For ABTS·+ decolourisation capacity, 100 μl of ABTS working solution was mixed with 200 μl of sample solution, and the absorbance was recorded after 10 min at 729 nm. Phosphate buffer (0.2 M, pH 7.4) was used as a negative control.
DPPH· and ABTS·+ radical scavenging activities of the tested sample were both calculated using the following formula: […]
where A control and A sample represent the absorbance of the control and test samples, respectively. The IC50 was calculated graphically from the dose-inhibition curves.

COX-2 = biological target: T1, COX-2 (Homo sapiens, UniProt P35354); test: Anti-COX-2 assay (COX-2 Inhibitor Screening Kit); assay type: biochemical
T1 construct: purchased Beyotime S0168
T1 sequence (P35354 18-604): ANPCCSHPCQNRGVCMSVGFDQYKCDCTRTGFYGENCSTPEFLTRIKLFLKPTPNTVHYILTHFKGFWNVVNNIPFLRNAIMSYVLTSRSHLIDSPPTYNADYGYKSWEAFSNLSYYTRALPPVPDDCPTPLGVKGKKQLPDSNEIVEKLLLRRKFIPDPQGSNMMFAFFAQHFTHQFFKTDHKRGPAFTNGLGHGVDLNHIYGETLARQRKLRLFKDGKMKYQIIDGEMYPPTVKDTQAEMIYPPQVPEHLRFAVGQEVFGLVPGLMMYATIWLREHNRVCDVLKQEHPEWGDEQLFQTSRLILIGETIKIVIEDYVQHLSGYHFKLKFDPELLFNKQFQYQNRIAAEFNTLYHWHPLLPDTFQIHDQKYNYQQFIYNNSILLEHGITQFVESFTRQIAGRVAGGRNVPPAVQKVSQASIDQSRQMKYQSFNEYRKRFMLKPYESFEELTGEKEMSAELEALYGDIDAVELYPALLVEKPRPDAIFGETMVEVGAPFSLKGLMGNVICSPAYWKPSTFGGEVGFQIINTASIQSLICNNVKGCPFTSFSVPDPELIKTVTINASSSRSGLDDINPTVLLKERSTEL
Method: Anti-inflammatory activity was assessed by measuring COX-2 enzymatic inhibition on the basis of a described method by using the COX-2 Inhibitor Screening Kit (Beyotime, No. S0168). Celecoxib, a COX-2 inhibitor, was used as a positive control.

[2] = FRAP total antioxidant capacity assay; assay type: biochemical
Method: as §1
For total antioxidant capacity, 180 μl of FRAP solution was mixed with 5 μl of sample solution, and the absorbance was measured after 5 min at […] with PBS as the negative control. FeSO4 solutions (0.15, 0.3, 0.6, 0.9, 1.2, and 1.5 mM) were used for the calibration curve. The FRAP value represents the corresponding concentration of FeSO4 solutions (mM FeSO4). The regression equation from the standard curve was used to calculate the equivalent concentration 1 (EC1) of each sample. EC1 is defined as the concentration of the test sample with an absorbance equivalent to that of 1.0 mmol/L of FeSO4 solution, determined by its calibration curve.

[3] = Online UPLC-PDA-MS-ABTS·+ scavenging (post-column derivatisation); assay type: biochemical; settings: online profiling of DOF extract
Method: Online identification of antioxidant components of DOF extract was performed using a UPLC system (Milford, MA, USA) consisting of a Waters photodiode array detector and a Waters postcolumn derivatisation system supplying fresh ABTS solution (UPLC-PDA-QDa-ABTS). […] The detection wavelengths were set at 280 and 734 nm, and the injection volume of the sample was 10 μl.
To detect radical scavengers, the UPLC system was coupled with a Waters pump, which supplied freshly prepared ABTS·+ solution into a reaction coil (15 m, 0.25 mm ID) with a flow rate of 0.2 ml/min at 37° C. Negative peaks were recorded based on a decrease of absorbance at 729 nm after the reaction of individual compounds with the ABTS·+ radical. For preliminary identification of compounds, a Waters Acquity QDa mass detector in negative ionisation mode was connected in series to PDA with the following parameters: electrospray ion source; cone voltage, 15 V; atomiser, N2; and scanning range, 100-800 m/z.

DPPH· scavenging assay = assay type: biochemical
[4] = test system: fluorescent AGEs (BSA-fructose/glucose system); test: Fluorescent AGEs formation in a BSA-fructose/glucose system; assay type: biochemical, bovine; settings: read-out: IC50, AGE formation
Method: The formation of total fluorescent AGEs in glycated samples was assessed by determining their fluorescent intensities at an excitation/emission wavelength of 350/450 nm, as previously described. Glycated protein was prepared in vitro by incubating BSA in the presence of D-glucose (GLC) and D-fructose (FRC). The DOF extract and specific standards were dissolved in DMSO:water (1:4). BSA (4 mg/ml, 100 μl) was preliminary mixed with 50 μl of GLC (0.5 M) and 50 μl of FRC (0.5 M) in 20 mM sodium phosphate buffer (pH 7.4), and then 100 μl samples were added in the 96-well plate and incubated at 37.5° C. for 7 days. All solutions were prepared under sterile conditions and filtered using a 0.22-μm syringe before incubation. The assay was performed in triplicate, and AG was used as a positive control.

[5] = test system: fluorescent AGEs (human serum albumin glycated with D-fructose and glucose); test: Non-enzymatic glycation of HSA, determination of fluorescent AGEs; assay type: biochemical; settings: for The inhibition rate of fluorescent AGE 360/453 nm (%): single replicate
Method: The anti-glycative ability of samples were assessed by measuring the amounts of fluorescent AGEs. 100 μL human serum albumin (4 mg/ml HSA) was glycated with 100 μL D-fructose (0.05 mol/L) and 100 μL glucose (0.05 mol/L) in the presence of samples in potassium phosphate buffer (0.2 mol/L, pH7.4, 0.06% NaN3) and incubated at 50° C. for […]. The incubated solutions were then used for the following assays. Rutin was the positive control.
The fluorescence intensity of the incubated solutions under the λex/λem=360/453 nm was recorded on microplate reader. The inhibition rate of fluorescent AGEs was calculated by the following equation: […]
where A1 is the fluorescence intensity of glycation system without samples; A2 is the fluorescence intensity of glycation system without HSA and samples; A3 is the fluorescence intensity of glycation system with HSA, sugar and samples; and A4 is the fluorescence intensity of glycation system without HSA.

type III collagen = test: Collagen type III in HDFs by immunofluorescence; assay type: cell-based, human; settings: positive drug, VC 200 μg/ml, 48 h, IF
Method: (§2) HDFs were cultured in DMEM with 10% (v/v) FBS and 1% PS at 37° C. in a humidified 5% CO2 incubator. Cells were subcultured using pancreatin solution after reaching confluence. All experiments were performed between the third and eighth passages.
(§3) The synthesis of collagen types I and III was detected using IF and ELISA. HDFs were digested and seeded in a 24-well culture plate on slides at a density of 50,000 cells/well in a complete medium. After reaching 80% confluency, cells were starved with the medium in the absence of serum for 16 h. Cells were then treated with positive controls or active samples (prepared in medium without serum) for an additional 48 h. For analysis and visualisation of types I and III collagens, the supernatants and remaining cell slides were both collected and analysed using ELISA kits and the IF staining method, respectively.
(§4) Collected supernatants were centrifuged at 10,000 rpm for 10 min and used for types I and III collagen ELISA, according to the manufacturer's protocol. The remaining cell slides were washed once with PBS and fixed in polyformaldehyde overnight at 4° C. Subsequently, the slides were treated with 0.5% Triton-X100 for 5 min. After washing, cells were blocked with 1% BSA at room temperature for 1 h. […] ImageJ software was used to quantify collagen expression from different images randomly selected in each group.

type I collagen [6] = test: Extracellular collagen type I of HDFs by ELISA; assay type: cell-based, human; settings: VC, 48 h, culture medium
Method: as §2, §3, §4

type I collagen [7] = test: Collagen type I in HDFs by immunofluorescence; assay type: cell-based, human; settings: positive drug, VC 200 μg/ml, 48 h, IF
Method: as §2, §3, §4

O=c1cc(-c2ccc(O)cc2)oc2c([C@@H]3O[C@H](CO)[C@@H](O)[C@H](O)[C@H]3O)c(O)c([C@@H]3OC[C@@H](O)[C@H](O)[C@H]3O)c(O)c12 [Compound 14, Vicenin-1]
IC50 [1]: 96.4 ± 2.11 µM

O=c1c(OC2OC(CO)C(O)C(O)C2OC2OC(CO)C(O)C(O)C2O)c(-c2ccc(O)c(O)c2)oc2cc(O)cc(O)c12 (stereo not drawn) [Compound 16, Quercetin-3-O-sophoroside]
COX-2 inhibition (in words) (COX-2): great COX-2 inhibition; also recorded: outstanding COX-2 inhibitory effects
antioxidant ability by FRAP (in words) [2]: great antioxidant potency
FRAP EC1 ([2]; Table 11, mean ± SD, n = 3): 950 µM
ABTS radical scavenging by size of negative peaks at 734 nm (in words) [3]: strongest ABTS radical scavengers
antioxidant ability by DPPH (in words) (DPPH· scavenging assay): great antioxidant potency
IC50 [1]: 6.63 ± 0.41 µM

C[C@@H]1O[C@@H](OC[C@H]2O[C@@H](Oc3c(-c4ccc(O)c(O)c4)oc4cc(O)cc(O)c4c3=O)[C@H](O)[C@@H](O)[C@@H]2O)[C@H](O)[C@H](O)[C@H]1O [Compound 24, Rutin]
COX-2 inhibition (in words) (COX-2): great COX-2 inhibition; also recorded: outstanding COX-2 inhibitory effects
COX-2 inhibition (in words) (COX-2; listed as rutin): potent COX-2 inhibitory capacity
antioxidant ability by FRAP (in words) [2]: great antioxidant potency
FRAP EC1 ([2]; Table 11, mean ± SD, n = 3): 205 µM
antioxidant ability by FRAP (in words) ([2]; listed as rutin): selective and significant antioxidant abilities
ABTS radical scavenging by size of negative peaks at 734 nm (in words) [3]: strongest ABTS radical scavengers
antioxidant ability by DPPH (in words) (DPPH· scavenging assay): great antioxidant potency
antioxidant ability by DPPH (in words) (DPPH· scavenging assay; listed as rutin): selective and significant antioxidant abilities
IC50 [4]: 222 ± 13.5 µM
Average % inhibition ([5]; 3.125 μg/ml): 2.02%
The inhibition rate of fluorescent AGE 360/453 nm (%) ([5]; 3.125 μg/ml): 2.34% and −3.34% and 7.07%
Average % inhibition ([5]; 6.25 μg/ml): 22.00%
The inhibition rate of fluorescent AGE 360/453 nm (%) ([5]; 6.25 μg/ml): 18.13% and 25.69% and 22.17%
Average % inhibition ([5]; 12.5 μg/ml): 41.15%
The inhibition rate of fluorescent AGE 360/453 nm (%) ([5]; 12.5 μg/ml): 35.84% and 42.05% and 45.57%
Average % inhibition ([5]; 25 μg/ml): 61.91%
The inhibition rate of fluorescent AGE 360/453 nm (%) ([5]; 25 μg/ml): 55.85% and 64.92% and 64.97%
Average % inhibition ([5]; 50 μg/ml): 75.80%
The inhibition rate of fluorescent AGE 360/453 nm (%) ([5]; 50 μg/ml): 74.72% and 79.59% and 73.08%
Average % inhibition ([5]; 100 μg/ml): 81.90%
The inhibition rate of fluorescent AGE 360/453 nm (%) ([5]; 100 μg/ml): 81.88% and 81.51% and 82.32%
Average % inhibition ([5]; 200 μg/ml): 85.69%
The inhibition rate of fluorescent AGE 360/453 nm (%) ([5]; 200 μg/ml): 84.54% and 85.94% and 86.58%
Average % inhibition ([5]; 400 μg/ml): 91.19%
The inhibition rate of fluorescent AGE 360/453 nm (%) ([5]; 400 μg/ml): 90.91% and 91.13% and 91.53%

O=c1c(O[C@@H]2O[C@H](CO)[C@@H](O)[C@H](O)[C@H]2O)c(-c2ccc(O)c(O)c2)oc2cc(O)cc(O)c12 [Compound 25, Isoquercitrin]
COX-2 inhibition (in words) (COX-2): great COX-2 inhibition; also recorded: outstanding COX-2 inhibitory effects
COX-2 inhibition (in words) (COX-2; listed as isoquercitrin): potent COX-2 inhibitory capacity
antioxidant ability by FRAP (in words) [2]: great antioxidant potency
FRAP EC1 ([2]; Table 11, mean ± SD, n = 3): 520 µM
antioxidant ability by FRAP (in words) ([2]; listed as isoquercitrin): selective and significant antioxidant abilities
ABTS radical scavenging by size of negative peaks at 734 nm (in words) [3]: strongest ABTS radical scavengers
antioxidant ability by DPPH (in words) (DPPH· scavenging assay): great antioxidant potency
antioxidant ability by DPPH (in words) (DPPH· scavenging assay; listed as isoquercitrin): selective and significant antioxidant abilities

O=C(O)CC(=O)OCC1OC(Oc2c(-c3ccc(O)c(O)c3)oc3cc(O)cc(O)c3c2=O)C(O)C(O)C1O (stereo not drawn) [Compound 27, Quercetin 3-O-(6″-malonyl-glucoside)]
COX-2 inhibition (in words) (COX-2): great COX-2 inhibition; also recorded: outstanding COX-2 inhibitory effects
antioxidant ability by FRAP (in words) [2]: great antioxidant potency
FRAP EC1 ([2]; Table 11, mean ± SD, n = 3): 827 µM
ABTS radical scavenging by size of negative peaks at 734 nm (in words) [3]: strongest ABTS radical scavengers
antioxidant ability by DPPH (in words) (DPPH· scavenging assay): great antioxidant potency

Cc1c(C)c2c(c(C)c1O)CCC(C)(C(=O)O)O2 (stereo not drawn) [Trolox, 6-hydroxyl-2,5,7,8-tetra-methylchroman-2-carboxylic acid, reference compound]
FRAP EC1 ([2]; Table 11, mean ± SD, n = 3): 560 µM
FRAP EC1 ([2]; concentration equivalent to 1.0 mmol/L FeSO4, text b269): 55.35 ± 5.22 µg/mL
ABTS IC50 ([1]; text b269): 27.68 ± 1.04 µg/mL

O=C1O[C@H]([C@@H](O)CO)C(O)=C1O [vitamin C]
Collagen type III expression, % of control (type III collagen): 125.90 % of control
increase of secreted collagen type I levels (type I collagen [6]): 21.94%
Collagen type I expression, % of control (type I collagen [7]): 190.20 % of control
